Assay results from patent US8058243B2, “Method for treating a brain cancer with ifenprodil” (HSC Research and Development Limited Partnership, priority 2006, dated 2011).
Counter-ions that a name gives are not always drawn. Like-named read-outs stand apart in the source and are kept apart here.

Tested on: murine neural precursor cells (neurosphere cultures)
Test: HTS of LOPAC library against secondary neurosphere cultures, MTT proliferation assay at 3 μM, day 7 (z score, P value)
Format: cell-based, mouse
[1] = LOPAC library screen, 3 μM, MTT, secondary neurosphere cultures, day 7
[2] = LOPAC primary screen, neurosphere MTT proliferation, 3 μM, day 7
[3] = yes/no: significantly inhibited neurosphere proliferation (P<0.01) in primary screen
[4] = LOPAC library screen, 3 μM, MTT, neurosphere cultures
[5] = yes/no: significantly inhibited neurosphere proliferation in primary screen
[6] = LOPAC library screen at 3 μM, secondary neurosphere cultures, MTT
[7] = LOPAC screen, neurosphere MTT proliferation, 3 μM, day 7
[8] = primary LOPAC screen, 3 μM, MTT, neurosphere proliferation
[9] = yes/no: significantly inhibited neurosphere proliferation in the primary screen
[10] = yes/no: significantly inhibited neurosphere proliferation (P<0.01) in the primary screen
[11] = yes = significantly inhibited neurosphere proliferation (P<0.01) in the primary screen
[12] = LOPAC library screen at 3 μM, MTT, secondary neurosphere cultures, screened in singlets

## CCOC(=O)N1CCC(=C2c3ccc(Cl)cc3CCc3cccnc32)CC1 [Loratadine]
[1]
  Z Score: −1.823
[2]
  Z score: −1.823
[3]
  Activity: no

## O=C(O)CCCCCCCC(=O)O [Azelaic acid]
[4]
  Z Score: 0.1057
[2]
  Z score: 0.106
[5]
  Activity: no

## OC[C@H]1O[C@@H](n2cnc3c(Nc4ccccc4)ncnc32)[C@H](O)[C@@H]1O [N6-Phenyladenosine]
  Z Score: 0.7283
  Z score: 0.728
[5]
  Activity: no

## C[C@H]1c2cccc(O)c2C(=O)C2=C(O)[C@]3(O)C(=O)C(C(N)=O)=C(O)[C@@H](N(C)C)[C@@H]3[C@@H](O)[C@@H]21 [Doxycycline hydrochloride]
[6]
  Z Score: −0.5578
[7]
  Z score: −0.558
[3]
  Activity: no

## NCCCCCCCCCCN [1,10-Diaminodecane]
168 h, 3 µM
  Z Score: 0.1393
  Z score: 0.139
[3]
  Activity: no

## CC(C)(C)c1cc(C=C(C#N)C#N)cc(C(C)(C)C)c1O [Tyrphostin A9]
[1]
  Z Score: −1.746
[8]
  Z score: −1.746
[9]
  Activity: no

## OC[C@H]1O[C@@H](n2cnc3c(NC4CCCC4)ncnc32)[C@H](O)[C@@H]1O [N6-Cyclopentyladenosine]
168 h, 3 µM
  Z Score: −0.7839
  Z score: −0.784
[3]
  Activity: no

## Br.Oc1ccc(C2CNCc3sccc32)cc1O (centres unmarked) [SKF 89626]
  Activity: no
  Z Score: −0.04369
[2]
  Z score: −0.044

## CN1CCc2cc(O)cc3c2[C@H]1Cc1ccc(O)c(O)c1-3 [R(−)-2,10,11-Trihydroxyaporphine]
[2]
  Z score: −3.309
[10]
  Activity: yes

## CC(NCCc1ccc(O)cc1)C(O)c1ccc(O)cc1 (centres unmarked) [Ritodrine hydrochloride]
[1]
  Z Score: −2.332
[2]
  Z score: −2.332
[10]
  Activity: yes

## O=C[C@H](Cl)[C@@H](O)[C@H](O)[C@H](O)CO [2-Chloro-2-deoxy-D-glucose]
[1]
  Z Score: −2.364
[2]
  Z score: −2.364
[11]
  Activity: yes

## CC[N+](C)(C)c1cccc(O)c1 [Edrophonium chloride]
  Z Score: −0.8064
[2]
  Z score: −0.806
[3]
  Activity: no

## Clc1ccc(C(c2ccccc2Cl)C(Cl)Cl)cc1 (centres unmarked) [1-(2-Chlorophenyl)-1-(4-chlorophenyl)-2,2-dichloroethane]
[1]
  Z Score: −2.508
[2]
  Z score: −2.508
[11]
  Activity: yes

## O=C1NC(c2cccc([N+](=O)[O-])c2)=CCN1c1ccccc1O [Icilin]
[12]
  Z Score: 1.643
[7]
  Z score: 1.643
[3]
  Activity: no

## CN1C2CCC1CC(NC(=O)c1nn(C)c3ccccc13)C2.O=C(O)/C=C\C(=O)O (centres unmarked) [LY-278,584 maleate]
  Z Score: −1.074
[2]
  Z score: −1.074
[11]
  Activity: no

## CCCCC/C=C\C[C@@H](O)/C=C/c1cccc(C[C@@H](O)CCCCO)n1 [U-75302]
  Z Score: −0.1722
[8]
  Z score: −0.172
[9]
  Activity: no

## Cl.N[C@@H](CCC(=O)O)C(=O)O [L-Glutamic acid hydrochloride]
  Z Score: −0.4727
[2]
  Z score: −0.473
[3]
  Activity: no

## CCN(CC)C(C)C(=O)N1c2ccccc2Sc2ccccc21 (stereo not drawn) [10-(alpha-Diethylaminopropionyl)-phenothiazine]
[2]
  Z score: −1.545
[10]
  Activity: no

## CC(C)NCC(O)COc1cccc2ccccc12.Cl (racemic) [(±)-Propranolol hydrochloride]
[2]
  Z score: 0.357
[5]
  Activity: no

## CC(C)=CCCC(C)=CCCC(C)=CCSc1ccccc1C(=O)O [Farnesylthiosalicylic acid]
[4]
  Z Score: 0.9061
[2]
  Z score: 0.906
[3]
  Activity: no

## N=C(N)NC(=O)c1nc(Cl)c(N)nc1N [Amiloride hydrochloride]
[6]
  Z Score: −0.7992
[2]
  Z score: −0.799
[10]
  Activity: no

## CNCCC(Oc1ccccc1OC)c1ccccc1 (centres unmarked) [Nisoxetine hydrochloride]
  Z Score: 0.8336
  Z score: 0.834

## C[N+](C)(C)CC#CCOC(=O)Nc1cccc(Cl)c1.[Cl-] [McN-A-343]
  Z Score: −0.08897
[7]
  Z score: −0.089
[3]
  Activity: no

## COCCOC(=O)C1=C(C)NC(C)=C(C(=O)OC(C)C)C1c1cccc([N+](=O)[O-])c1 (centres unmarked) [Nimodipine]
[6]
  Z Score: −0.8542
[2]
  Z score: −0.854

## Cl.c1ccc(CN2CCC3(CCCc4ccccc43)CC2)cc1 [L-687,384 hydrochloride]
  Z Score: −9.156
[2]
  Z score: −9.156
[11]
  Activity: yes

## Cl.Nc1c2c(nc3ccccc13)CCCC2 [9-Amino-1,2,3,4-tetrahydroacridine hydrochloride]
  Activity: no
  Z Score: −1.021
  Z score: −1.021

## CC(N)(Cc1ccc(O)c(O)c1)C(=O)O (racemic)
  Z Score: −1.894

## O=C(O)Cc1ccc(O)c(O)c1 [3,4-Dihydroxyphenylacetic acid]
  Z Score: −0.5832
[7]
  Z score: −0.583
[3]
  Activity: no

## C/C=C1\C(=O)C[C@H]2[C@@H]3CCC4=CC(=O)CC[C@]4(C)[C@H]3CC[C@]12C [(Z)-Gugglesterone]
  Z Score: 3.205
[7]
  Z score: 3.205
[3]
  Activity: no

## O=S(=O)(c1cccc2c(I)cccc12)N1CCCNCC1 [ML-7]
  Z Score: −11.27
[2]
  Z score: −11.274
[10]
  Activity: yes

## CC(=O)[C@H]1CC[C@H]2[C@@H]3CC=C4C[C@@H](OS(=O)(=O)[O-])CC[C@]4(C)[C@H]3CC[C@]12C.[Na+] [Pregnenolone sulfate sodium]
[12]
  Z Score: 2.653
[2]
  Z score: 2.653
[5]
  Activity: no

## CCCCNC(=O)NS(=O)(=O)c1ccc(C)cc1 [Tolbutamide]
  Activity: no
[6]
  Z Score: −0.3032
[8]
  Z score: −0.303

## COc1cc(C(O)CO)ccc1OS(=O)(=O)[O-].[K+] (centres unmarked) [MHPG sulfate potassium]
  Z Score: −0.5556
[2]
  Z score: −0.556
[3]
  Activity: no

## Cl.Fc1ccc(CN(C2=NCCN2)c2c(Cl)cccc2Cl)cc1 [IMID-4F hydrochloride]
  Z Score: −1.906
[2]
  Z score: −1.906
[3]
  Activity: no

## O=c1[nH]c2ccccc2n1C1CCN(CCCC(c2ccc(F)cc2)c2ccc(F)cc2)CC1 [Pimozide]
[6]
  Z Score: −0.2323
[2]
  Z score: −0.232

## N[C@@H](CC(=O)O)C(=O)O [L-Aspartic acid]
  Activity: no
168 h, 3 µM
  Z Score: 0.1632
  Z score: 0.163

## COc1cc(C=C(C#N)C#N)cc(O)c1O [Tyrphostin AG 34]
[1]
  Z Score: −2.319
[2]
  Z score: −2.319
[5]
  Activity: no

## Oc1cc2c(cc1O)CN(C(=S)NCCc1ccc(Cl)cc1)CCC2 [Capsazepine]
[4]
  Z Score: 1.26
[7]
  Z score: 1.260
[3]
  Activity: no

## COc1ccc2c(c1)c(CC(=O)O)c(C)n2C(=O)c1ccccc1 [1-benzoyl-5-methoxy-2-methylindole-3-acetic acid]
[6]
  Z Score: −0.955
[8]
  Z score: −0.955
[9]
  Activity: no

## L(−)-Norepinephrine bitartrate
[1]
  Z Score: −1.418
[8]
  Z score: −1.418
[9]
  Activity: no

## C[C@H](N)CN1CCc2ccc(Br)cc21.C[C@H](N)CN1CCc2ccc(Br)cc21.O=C(O)/C=C/C(=O)O [VER-3323 hemifumarate salt]
  Z Score: −0.7614
[2]
  Z score: −0.761
[3]
  Activity: no

## Cn1ccc2cc3c(cc21)CCN3C(=O)Nc1cccnc1 [SB 206553 hydrochloride]
  Z Score: −1.365
[8]
  Z score: −1.365
[9]
  Activity: no

## O=c1c2ccccc2[nH]c(=S)n1CCN1CCC(=C(c2ccc(F)cc2)c2ccc(F)cc2)CC1 [Diacylglycerol Kinase Inhibitor II]
[1]
  Z Score: −1.39
[7]
  Z score: −1.390
[3]
  Activity: no

## CC(COc1ccc(/C=C/c2ccccc2)cc1)[N+](C)(C)C (centres unmarked)
[2]
  Z score: −11.127
[10]
  Activity: yes

## CCNC(=O)N1CCN(CCCC(c2ccc(F)cc2)c2ccc(F)cc2)CC1 [Amperozide hydrochloride]
168 h, 3 µM
  Z Score: −0.4126
  Z score: −0.413
[11]
  Activity: no

## Cl.NCC(O)c1ccc(O)cc1 (centres unmarked) [(B1)-Octopamine hydrochloride]
  Z Score: −1.567

## N#C/C(=C\c1ccc(O)c(O)c1)C(=O)Nc1ccccc1 [Tyrphostin AG 494]
  Z Score: −2.275
[8]
  Z score: −2.275
[9]
  Activity: no

## Cl.OC1CCCCC1N1CCC(c2ccccc2)CC1 (centres unmarked) [(B1)-Vesamicol hydrochloride]
  Z Score: −1.967

## Br.CN=c1nc(-c2ccccc2)n(-c2ccccc2)s1 [SCH-202676 hydrobromide]
  Z Score: 0.3599
[2]
  Z score: 0.360
[5]
  Activity: no

## CCN1C(=O)C=CC1=O [N-Ethylmaleimide]
  Z Score: −0.02816
[2]
  Z score: −0.028
[3]
  Activity: no

## N[C@@H](Cc1ccc(N(CCCl)CCCl)cc1)C(=O)O [Melphalan]
  Z Score: −3.907
[2]
  Z score: −3.907
[10]
  Activity: yes

## CN(C)S(=O)(=O)c1ccc2c(c1)/C(=C/c1cc3c([nH]1)CCCC3)C(=O)N2 [SU 6656]
  Z Score: 0.3165
[2]
  Z score: 0.316
[5]
  Activity: no

## CN1CCC(=C2c3ccccc3CC(=O)c3sccc32)CC1 [Ketotifen fumarate]
[4]
  Z Score: 0.9573
[2]
  Z score: 0.957
[3]
  Activity: no

## c1ccc(C2CC2)c(OCC2=NCCN2)c1 [Cirazoline hydrochloride]
[4]
  Z Score: 0.4239
[7]
  Z score: 0.424
[3]
  Activity: no

## Nc1ncnc2c1ncn2C1CCCO1 (centres unmarked) [SQ 22536]
  Z Score: 0.5616
[8]
  Z score: 0.562
[9]
  Activity: no
